The values that follow are results of earlier work, collected in US20080176830A1, “Compounds, Compositions, and Methods” (priority 2005, published 2008).

One may read the GI50 as the concentration that inhibits growth by half.

Structures are written as SMILES.

This series has as its system A549 cells. The conditions noted are these: data provided by National Cancer Institute.
Take `NC(=O)NO` [hydroxyurea]: the GI50 is 500000 nM. In the case of `O=c1[nH]cc(F)c(=O)[nH]1` [5-fluorouracil], the GI50 was 1000 nM. Consider `CC(=O)O[C@H]1C(=O)[C@@]2(C)[C@H]([C@H](OC(=O)c3ccccc3)[C@]3(O)C[C@H](OC(=O)[C@H](O)[C@@H](NC(=O)c4ccccc4)c4ccccc4)C(C)=C1C3(C)C)[C@]1(OC(C)=O)CO[C@@H]1C[C@@H]2O` [paclitaxel], for which the GI50 is 4 nM. Consider `COc1cccc2c1C(=O)c1c(O)c3c(c(O)c1C2=O)C[C@@](O)(C(=O)CO)C[C@@H]3O[C@H]1C[C@H](N)[C@H](O)[C@H](C)O1` [doxorubicin], for which the GI50 is 63 nM.
